Source: the NIST ThermoML archive (doi:10.1021/je050173+)

Columns and labels:
[1] = molar heat capacity at constant pressure; conditions: 101.33 kPa, Liquid
[2] = for mass density / viscosity / thermal conductivity: 101.33 kPa; for mass density / viscosity / thermal conductivity / vapor or sublimation pressure: Liquid; for thermal conductivity: Hot wire method; for surface tension liquid-gas: Maximal bubble pressure

C[Si]1(C)O[Si](C)(C)O[Si](C)(C)O1 [hexamethylcyclotrisiloxane]
Conditions | mass density [kg/m3] | molar heat capacity at constant pressure [J/K/mol] | surface tension liquid-gas [mN/m] | thermal conductivity [W/m/K] | vapor or sublimation pressure [kPa] | viscosity [mPa·s]
[1], 339.9 K | – | 404.5 | – | – | – | –
[1], 343.15 K | – | 405.9 | – | – | – | –
[1], 345.03 K | – | 406.7 | – | – | – | –
[1], 353.15 K | – | 410.4 | – | – | – | –
[1], 357.92 K | – | 412.3 | – | – | – | –
[1], 361.2 K | – | 413.8 | – | – | – | –
[1], 365.09 K | – | 415.6 | – | – | – | –
[1], 370.16 K | – | 418.1 | – | – | – | –
[1], 374.79 K | – | 420.1 | – | – | – | –
[1], 379.42 K | – | 421.8 | – | – | – | –
[1], 383.15 K | – | 423.6 | – | – | – | –
[1], 388.06 K | – | 425.6 | – | – | – | –
[1], 393.14 K | – | 428.1 | – | – | – | –
[1], 398.01 K | – | 430 | – | – | – | –
[1], 400 K | – | 431 | – | – | – | –
[1], 404.89 K | – | 433.2 | – | – | – | –
[2], 343.15 K | 872.69 | – | – | 0.1026 | – | 0.48
[2], 344.55 K | – | – | 13.54 | – | – | –
[2], 347.35 K | – | – | 13.32 | – | – | –
[2], 347.64 K | – | – | – | – | 13.85 | –
[2], 348.15 K | – | – | – | – | – | 0.46
[2], 348.7 K | 865.41 | – | – | – | – | –
[2], 350.13 K | – | – | – | – | 15.28 | –
[2], 351.45 K | – | – | – | – | 16.19 | –
[2], 353.15 K | – | – | – | – | – | 0.44
[2], 353.95 K | – | – | 12.9 | – | – | –
[2], 354.65 K | 856.98 | – | – | – | – | –
[2], 355.59 K | – | – | – | – | 19.01 | –
[2], 357.4 K | 854.11 | – | – | – | – | –
[2], 358.15 K | – | – | – | – | – | 0.42
[2], 358.45 K | – | – | 12.68 | – | – | –
[2], 359.15 K | 852.6 | – | – | – | – | –
[2], 360.17 K | – | – | – | – | 22.55 | –
[2], 361.61 K | – | – | – | – | 23.75 | –
[2], 362.4 K | – | – | – | – | 24.47 | –
[2], 363.15 K | – | – | 12.33 | – | – | 0.4
[2], 365.71 K | – | – | – | – | 27.62 | –
[2], 366.1 K | 842.76 | – | – | – | – | –
[2], 368.15 K | – | – | 12.02 | – | – | 0.39
[2], 368.81 K | – | – | – | – | 30.71 | –
[2], 369.65 K | 838 | – | – | – | – | –
[2], 372.34 K | – | – | – | – | 34.63 | –
[2], 372.68 K | – | – | – | – | 35.01 | –
[2], 373.15 K | 833.47 | – | 11.71 | – | – | 0.37
[2], 378.15 K | – | – | 11.4 | – | – | 0.35
[2], 379.16 K | 825.64 | – | – | – | – | –
[2], 381.37 K | – | – | – | – | 46.63 | –
[2], 383.15 K | 820.39 | – | 11.09 | – | – | 0.34
[2], 383.78 K | – | – | – | – | 50.31 | –
[2], 387.85 K | 814.16 | – | – | – | – | –
[2], 387.95 K | – | – | – | – | 57.22 | –
[2], 388.15 K | – | – | – | – | – | 0.33
[2], 393.15 K | – | – | – | – | – | 0.32
[2], 397.75 K | – | – | – | – | 76.52 | –
[2], 407.63 K | – | – | – | – | 100.85 | –

C[Si]1(C)O[Si](C)(C)O[Si](C)(C)O[Si](C)(C)O1 [octamethylcyclotetrasiloxane]
Conditions | mass density [kg/m3] | molar heat capacity at constant pressure [J/K/mol] | surface tension liquid-gas [mN/m] | thermal conductivity [W/m/K] | vapor or sublimation pressure [kPa] | viscosity [mPa·s]
[1], 293.15 K | – | 511.5 | – | – | – | –
[1], 298 K | – | 513.6 | – | – | – | –
[1], 303.15 K | – | 515.8 | – | – | – | –
[1], 306.25 K | – | 517.2 | – | – | – | –
[1], 313.12 K | – | 520.1 | – | – | – | –
[1], 319 K | – | 522.7 | – | – | – | –
[1], 323.25 K | – | 524.5 | – | – | – | –
[1], 327.55 K | – | 526.4 | – | – | – | –
[1], 334.75 K | – | 529.1 | – | – | – | –
[1], 337.88 K | – | 530.8 | – | – | – | –
[1], 342.23 K | – | 532.7 | – | – | – | –
[1], 348.05 K | – | 535.2 | – | – | – | –
[1], 352.2 K | – | 538.8 | – | – | – | –
[1], 358.83 K | – | 539.9 | – | – | – | –
[1], 364.28 K | – | 542.2 | – | – | – | –
[1], 370.25 K | – | 543 | – | – | – | –
[1], 377.55 K | – | 548 | – | – | – | –
[1], 382.48 K | – | 550.1 | – | – | – | –
[1], 388.65 K | – | 552.3 | – | – | – | –
[1], 393.15 K | – | 554.7 | – | – | – | –
[1], 399.83 K | – | 557.7 | – | – | – | –
[1], 407.15 K | – | 560.8 | – | – | – | –
[1], 415.73 K | – | 564.5 | – | – | – | –
[1], 425.95 K | – | 568.4 | – | – | – | –
[2], 292 K | 957.55 | – | – | – | – | –
[2], 293.15 K | – | – | 17.93 | – | – | 2.45
[2], 298.15 K | – | – | – | 0.1131 | – | –
[2], 301.6 K | 946.16 | – | – | – | – | –
[2], 303.15 K | 944.21 | – | 17.28 | – | – | 2.06
[2], 311.2 K | 934.8 | – | – | – | – | –
[2], 311.8 K | – | – | – | – | 0.355 | –
[2], 313.15 K | 932.43 | – | 16.6 | – | – | 1.7
[2], 316 K | 929.12 | – | – | – | – | –
[2], 317.63 K | – | – | – | – | 0.535 | –
[2], 318.25 K | – | – | – | – | 0.548 | –
[2], 323.15 K | – | – | 15.95 | – | – | 1.44
[2], 325.62 K | 917.74 | – | – | – | – | –
[2], 328.59 K | – | – | – | – | 0.988 | –
[2], 328.78 K | – | – | – | – | 0.996 | –
[2], 330.47 K | 912.06 | – | – | – | – | –
[2], 332.94 K | – | – | – | – | 1.295 | –
[2], 333.15 K | 909.32 | – | 15.16 | – | – | 1.23
[2], 336.67 K | – | – | – | – | 1.642 | –
[2], 339.58 K | – | – | – | – | 1.926 | –
[2], 340.05 K | 900.68 | – | – | – | – | –
[2], 343.15 K | – | – | 14.5 | 0.1038 | – | 1.06
[2], 343.99 K | – | – | – | – | 2.426 | –
[2], 344.8 K | 894.99 | – | – | – | – | –
[2], 349.65 K | 889.31 | – | – | – | – | –
[2], 349.86 K | – | – | – | – | 3.277 | –
[2], 353.15 K | 884.79 | – | 13.77 | – | – | 0.92
[2], 360.26 K | – | – | – | – | 5.47 | –
[2], 363.15 K | – | – | 13.05 | – | – | 0.81
[2], 364.04 K | 872.24 | – | – | – | – | –
[2], 373.15 K | 861.35 | – | 12.38 | – | – | 0.71
[2], 376.51 K | – | – | – | – | 10.96 | –
[2], 379.31 K | – | – | – | – | 12.23 | –
[2], 381.23 K | – | – | – | – | 13.17 | –
[2], 383.15 K | – | – | – | – | – | 0.63
[2], 383.17 K | – | – | – | – | 14.24 | –
[2], 383.2 K | 849.47 | – | – | – | – | –
[2], 383.58 K | – | – | – | – | 14.44 | –
[2], 388.92 K | – | – | – | – | 17.67 | –
[2], 389.73 K | – | – | – | – | 18.2 | –
[2], 390.88 K | – | – | – | – | 18.9 | –
[2], 393.15 K | 837.64 | – | 10.98 | – | – | 0.56
[2], 396.28 K | – | – | – | – | 22.95 | –
[2], 397.6 K | 832.37 | – | – | – | – | –
[2], 403.15 K | – | – | – | – | – | 0.51
[2], 407.22 K | 821 | – | – | – | – | –
[2], 407.56 K | – | – | – | – | 33.46 | –
[2], 413.15 K | 813.94 | – | 9.58 | – | – | –
[2], 413.82 K | – | – | – | – | 40.8 | –
[2], 421.58 K | 803.91 | – | – | – | – | –
[2], 423.15 K | – | – | – | – | – | 0.41
[2], 423.24 K | – | – | – | – | 54.11 | –
[2], 433.15 K | 790.24 | – | 8.18 | – | – | –
[2], 446.26 K | – | – | – | – | 100.82 | –
